Columns and labels:
Rattus norvegicus [1] = experiment: Anticonflict activity measured in male wistar rats; number of shocks received in 5 min at an intravenous dose of 10 mg/kg.; type: functional
Rattus norvegicus [2] = experiment: No of shocks of 5 min was reported after oral administration of a dose of 20 mg/kg in 10 rats; type: functional
Rattus norvegicus [3] = experiment: No. rats showing anticonflict activity after oral administration of a dose of 5 mg/kg; Number of rats which received shocks more than twice vs shocks received in control rats to that of number of rats tested 3/10; type: functional
Mus musculus [4] = experiment: Latency step was determined after oral administration of a dose of 40 mg/kg in 8 mice; type: functional
Mus musculus [5] = experiment: Latency step was determined after oral administration of a dose of 20 mg/kg in 8 mice; type: functional
Rattus norvegicus [6] = experiment: No. rats showing anticonflict activity after oral administration of a dose of 20 mg/kg; Number of rats which received shocks more than twice vs shocks received in control rats to that of number of rats tested 6/10; type: functional
Mus musculus [7] = experiment: Latency step was determined after oral administration of a dose of 5 mg/kg in 8 mice; type: functional
Rattus norvegicus [8] = experiment: No of shocks of 5 min was reported after oral administration of a dose of 40 mg/kg in 9 rats; type: functional
Mus musculus [9] = experiment: Number of mice showing anti-amnesic activity after oral administration of a dose of 5 mg/kg; Number of mice which prolonged latency more than twice the duration of mice administered Scopolamine singly/number of mice tested 2/8; type: functional
Mus musculus [10] = experiment: […] activity after oral administration of a dose of 40 mg/kg; Number of mice which prolonged latency more than twice the duration of mice administered Scopolamine singly/number of mice tested 6/8; type: functional
Rattus norvegicus [11] = experiment: No of shocks of 5 min was reported after oral administration of a dose of 5 mg/kg in 10 rats; type: functional
Rattus norvegicus [12] = experiment: No. rats showing anticonflict activity after oral administration of a dose of 40 mg/kg; Number of rats which received shocks more than twice vs shocks received in control rats to that of number of rats tested 8/10; type: functional
Mus musculus [13] = experiment: No. rats showing anticonflict activity after oral administration of a dose of 20 mg/kg; Number of mice which prolonged latency more than twice the duration of mice administered Scopolamine singly/number of mice tested 4/8; type: functional
[14] = target: GABA-A receptor; anion channel; experiment: Inhibition of [3H]flunitrazepam binding to GABA-A Benzodiazepine receptor of Wistar rat cerebral cortex; type: tissue-based
Mus musculus [15] = experiment: Lessening of memory impairment measured in mice; time of latency in seconds at an intravenous dose of 10 mg/kg.; type: functional
Mus musculus [16] = experiment: No. rats showing anticonflict activity after oral administration of a dose of 20 mg/kg; Number of mice which prolonged latency more than twice the duration of mice administered Scopolamine singly/number of mice tested 3/8; type: functional
[17] = target: T1, 5-hydroxytryptamine receptor 1A (Rattus norvegicus, UniProt P19327); experiment: Binding affinity towards 5-hydroxytryptamine 1A receptor in rat brain; type: tissue-based
T1 sequence (P19327 whole entry): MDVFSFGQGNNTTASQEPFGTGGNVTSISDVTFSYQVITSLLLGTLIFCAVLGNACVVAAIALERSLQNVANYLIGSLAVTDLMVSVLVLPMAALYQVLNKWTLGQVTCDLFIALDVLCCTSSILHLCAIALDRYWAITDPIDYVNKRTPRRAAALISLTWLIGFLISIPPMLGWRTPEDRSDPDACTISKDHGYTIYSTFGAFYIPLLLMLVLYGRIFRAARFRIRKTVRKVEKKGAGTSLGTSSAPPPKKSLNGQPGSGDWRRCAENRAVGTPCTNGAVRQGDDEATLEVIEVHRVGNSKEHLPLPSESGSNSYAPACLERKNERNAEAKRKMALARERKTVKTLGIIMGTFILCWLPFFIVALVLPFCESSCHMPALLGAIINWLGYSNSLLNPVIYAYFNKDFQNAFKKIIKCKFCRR

Rattus norvegicus [18] = experiment: No. rats showing anticonflict activity after oral administration of a dose of 20 mg/kg; Number of rats which received shocks more than twice vs shocks received in control rats to that of number of rats tested 5/10; type: functional
Mus musculus [19] = experiment: […] activity after oral administration of a dose of 5 mg/kg; Number of mice which prolonged latency more than twice the duration of mice administered Scopolamine singly/number of mice tested 1/8; type: functional
Rattus norvegicus [20] = experiment: No. rats showing anticonflict activity after oral administration of a dose of 40 mg/kg; Number of rats which received shocks more than twice vs shocks received in control rats to that of number of rats tested 6/9; type: functional
Mus musculus [21] = organism: Mus musculus; experiment: Lessening of memory impairment by the compound was measured in mice.; type: functional
Mus musculus [22] = experiment: No. of mice showing anti-amnesic activity after oral administration of a dose of 40 mg/kg; Number of mice which prolonged latency more than twice the duration of mice administered Scopolamine singly/number of mice tested 6/8; type: functional
Rattus norvegicus [23] = experiment: No of shocks of 5 min was reported after oral administration of a dose of 20 mg/kg; type: functional
Rattus norvegicus [24] = experiment: No of shocks of 5 min was reported after oral administration of a dose of 40 mg/kg; type: functional
Mus musculus [25] = experiment: No. of mice showing anti-amnesic activity after oral administration of a dose of 20 mg/kg; Number of mice which prolonged latency more than twice the duration of mice administered Scopolamine singly/number of mice tested 4/8; type: functional
Mus musculus [26] = experiment: No. of mice showing anti-amnesic activity after oral administration of a dose of 5 mg/kg; Number of mice which prolonged latency more than twice the duration of mice administered Scopolamine singly/number of mice tested 4/8; type: functional
Mus musculus [27] = experiment: Latency step was determined after oral administration of a dose of 40 mg/kg in 8 mice.; type: functional
Rattus norvegicus [28] = experiment: No. rats showing anticonflict activity after oral administration of a dose of 20 mg/kg; Number of rats which received shocks more than twice vs shocks received in control rats to that of number of rats tested 2/8; type: functional
Rattus norvegicus [29] = experiment: No. rats showing anticonflict activity after oral administration of a dose of 40 mg/kg; Number of rats which received shocks more than twice vs shocks received in control rats to that of number of rats tested 4/7; type: functional
Mus musculus [30] = experiment: Latency step was determined after oral administration of a dose of 20 mg/kg in 8 mice.; type: functional
Rattus norvegicus [31] = experiment: No. rats showing anticonflict activity after oral administration of a dose of 10 mg/kg; Number of rats which received shocks more than twice vs shocks received in control rats to that of number of rats tested 25/43; type: functional
Rattus norvegicus [32] = experiment: No of shocks of 5 min was reported after oral administration of a dose of 5 mg/kg in 43 rats; 25/43; type: functional
Rattus norvegicus [33] = experiment: Anticonflict activity was measured in male wistar rats; number of shocks received in 5 min at a dose of 3 mg/kg ip; type: functional; settings: route intraperitoneal
Mus musculus [34] = experiment: […] activity after oral administration of a dose of 5 mg/kg in mice; Number of mice which prolonged latency more than twice the duration of mice administered Scopolamine singly/number of mice tested 1/10; type: functional

## CCOC(=O)C1Cc2c(sc3ccccc23)CN1 (centres undefined)
Rattus norvegicus [1]
  Activity: 27.2
Rattus norvegicus [2]
  No. of shocks: 29.3
Rattus norvegicus [3]
  Anticonflict activity: 3
Mus musculus [4]
  Activity: 129.9
Mus musculus [5]
  Activity: 110.1
Rattus norvegicus [6]
  Anticonflict activity: 6
Mus musculus [7]
  Activity: 68.8
Rattus norvegicus [8]
  No. of shocks: 30.2
Mus musculus [9]
  Antiamnesic activity: 2
Mus musculus [10]
  Antiamnesic activity: 6
Rattus norvegicus [11]
  No. of shocks: 16.1
Rattus norvegicus [12]
  Anticonflict activity: 8
Mus musculus [13]
  Antiamnesic activity: 4
[14]
  IC50: 1500 µM
Mus musculus [15]
  Activity: 90.5

## CCNC(=O)c1cc2c(cn1)sc1ccccc12
Rattus norvegicus [1]
  Activity: 8.5
Mus musculus [15]
  Activity: 36.3

## O=C(O)c1cc2c(cn1)sc1ccccc12
Rattus norvegicus [1]
  Activity: 4
Mus musculus [15]
  Activity: 55.8

## O=C(c1cc2c(cn1)sc1ccccc12)N1CCCCC1
Rattus norvegicus [1]
  Activity: 5
Mus musculus [15]
  Activity: 60.2

## COC(=O)c1cc2c(cn1)sc1ccccc12
Rattus norvegicus [1]
  Activity: 8.5
Mus musculus [15]
  Activity: 31.6

## CCOC(=O)C1Cc2c(sc3ccccc23)CN1C (centres undefined)
Rattus norvegicus [1]
  Activity: 22
Mus musculus [15]
  Activity: 32.9

## CCCOC(=O)c1cc2c(cn1)sc1ccccc12
Rattus norvegicus [1]
  Activity: 9.6
[14]
  IC50: 1530 µM
Mus musculus [15]
  Activity: 22.1

## CCCCCCNC(=O)c1cc2c(cn1)sc1ccccc12
Rattus norvegicus [1]
  Activity: 10.5
Mus musculus [15]
  Activity: 62.3

## CNC(=O)c1cc2c(cn1)sc1ccccc12
Rattus norvegicus [1]
  Activity: 8.4
Mus musculus [15]
  Activity: 28.6

## CCCNC(=O)c1cc2c(cn1)sc1ccccc12
Rattus norvegicus [1]
  Activity: 17.3
Mus musculus [15]
  Activity: 42

## NNC(=O)c1cc2c(cn1)sc1ccccc12
Rattus norvegicus [1]
  Activity: 11.2
Mus musculus [15]
  Activity: 20.4

## O=C(c1cc2c(cn1)sc1ccccc12)N1CCOCC1
Rattus norvegicus [1]
  Activity: 8.2
Mus musculus [15]
  Activity: 52.9

## O=C(NC1CCCCC1)C1Cc2c(sc3ccccc23)CN1 (centres undefined)
Rattus norvegicus [1]
  Activity: 36.9
Mus musculus [16]
  Antiamnesic activity: 3
Rattus norvegicus [2]
  No. of shocks: 28.1
Rattus norvegicus [3]
  Anticonflict activity: 3
[17]
  Ki: 0.28 µM
Rattus norvegicus [18]
  Anticonflict activity: 5
Mus musculus [5]
  Activity: 85
Mus musculus [7]
  Activity: 67.5
Mus musculus [19]
  Antiamnesic activity: 1
Rattus norvegicus [8]
  No. of shocks: 26.9
Rattus norvegicus [20]
  Anticonflict activity: 6
Rattus norvegicus [11]
  No. of shocks: 15.5
[14]
  IC50: 1600 µM
Mus musculus [15]
  Activity: 120.4

## CCCOC(=O)C1Cc2c(sc3ccccc23)CN1 (centres undefined)
Rattus norvegicus [1]
  Activity: 14.5
Mus musculus [15]
  Activity: 57.2

## NC(=O)c1cc2c(cn1)sc1ccccc12
Rattus norvegicus [1]
  Activity: 17
[14]
  IC50: 1560 µM
Mus musculus [15]
  Activity: 24.7

## CCOC(=O)C1Cc2c(sc3ccccc23)CN1C(=O)c1ccccc1Cl (centres undefined)
Rattus norvegicus [1]
  Activity: 2.5
Mus musculus [15]
  Activity: 28.1

## CCOC(=O)C1Cc2c(sc3ccccc23)CN1C(=O)c1ccccc1 (centres undefined)
Rattus norvegicus [1]
  Activity: 6.3
Mus musculus [15]
  Activity: 35.1

## COC(=O)CCCNC(=O)c1cc2c(cn1)sc1ccccc12
Rattus norvegicus [1]
  Activity: 9.9

## CCOC(=O)C1Cc2c(sc3ccccc23)CN1C(C)=O (centres undefined)
Mus musculus [15]
  Activity: 37.3

## CC1CCCC(C)N1C(=O)c1cc2c(cn1)sc1ccccc12 (centres undefined)
Rattus norvegicus [1]
  Activity: 4.5

## COC(=O)C1Cc2c(sc3ccccc23)CN1 (centres undefined)
Rattus norvegicus [1]
  Activity: 17.9
Mus musculus [21]
  Activity: 64.5

## CC(=O)N1CCCN(C(=O)c2cc3c(cn2)sc2ccccc23)CC1.Cl
Rattus norvegicus [1]
  Activity: 22.2
Mus musculus [15]
  Activity: 55

## Cl.O=C(c1cc2c(cn1)sc1ccccc12)N1CCCNCC1
Rattus norvegicus [1]
  Activity: 21.8
Mus musculus [15]
  Activity: 38.9

## Cl.NCCCNC(=O)c1cc2c(cn1)sc1ccccc12
Rattus norvegicus [1]
  Activity: 15.2
Mus musculus [15]
  Activity: 37.7

## Cl.O=C(c1cc2c(cn1)sc1ccccc12)N1CCNCC1
Rattus norvegicus [1]
  Activity: 17.8
Mus musculus [15]
  Activity: 40.7

## Cl.NCCCC(=O)N1CCCN(C(=O)c2cc3c(cn2)sc2ccccc23)CC1
Mus musculus [15]
  Activity: 51.9

## CN1CCN(C(=O)c2cc3c(cn2)sc2ccccc23)CC1.Cl
Rattus norvegicus [1]
  Activity: 3.3
Mus musculus [15]
  Activity: 44.2

## CN(C)CCNC(=O)c1cc2c(cn1)sc1ccccc12.Cl
Rattus norvegicus [1]
  Activity: 9.6
Mus musculus [15]
  Activity: 64.5

## Cl.O=C(c1cc2c(cn1)sc1ccccc12)N1CCCN(Cc2ccc(Cl)cc2)CC1
Rattus norvegicus [1]
  Activity: 12.8
Mus musculus [15]
  Activity: 34.7

## Cl.NCCNC(=O)c1cc2c(cn1)sc1ccccc12
Rattus norvegicus [1]
  Activity: 37.2
Mus musculus [22]
  Antiamnesic activity: 6
Rattus norvegicus [23]
  No. of shocks: 9.3
Rattus norvegicus [24]
  No. of shocks: 22
Mus musculus [7]
  Activity: 65.5
Mus musculus [25]
  Antiamnesic activity: 4
Mus musculus [26]
  Antiamnesic activity: 4
Mus musculus [27]
  Activity: 125.1
Rattus norvegicus [28]
  Anticonflict activity: 2
Rattus norvegicus [29]
  Anticonflict activity: 4
Mus musculus [15]
  Activity: 103.9
Mus musculus [30]
  Activity: 106.7

## CN1CCCN(C(=O)c2cc3c(cn2)sc2ccccc23)CC1.Cl
Rattus norvegicus [1]
  Activity: 3.5
Mus musculus [15]
  Activity: 40.3

## CC1CN(C(=O)c2cc3c(cn2)sc2ccccc23)CCN1.Cl (centres undefined)
Rattus norvegicus [1]
  Activity: 7.6
Mus musculus [15]
  Activity: 40.3

## Cl.NCC(=O)N1CCCN(C(=O)c2cc3c(cn2)sc2ccccc23)CC1
Rattus norvegicus [1]
  Activity: 14.1

## CCOC(=O)c1cc2c(cn1)sc1ccccc12
Rattus norvegicus [1]
  Activity: 10.7
Mus musculus [15]
  Activity: 11.3

## CN1C(=O)CN=C(c2ccccc2)c2cc(Cl)ccc21 [DIAZEPAM]
Rattus norvegicus [31]
  Anticonflict activity: 25
Rattus norvegicus [32]
  No. of shocks: 22.7
Rattus norvegicus [33]
  Activity: 39.4
Mus musculus [34]
  Antiamnesic activity: 1
